Results on 11 compounds are retold here after patent US9650423B2, “Long peptides of 22-45 amino acid residues that induce and/or enhance antigen specific immune responses” (priority 2000, dated 2017).

Where two headings read alike, the source gives them in different places. Residues, ends and D or L forms follow the SMILES beside them. No end group written: not given here.

One assay has as its target HLA-DR4 (DRB*0401). Description: HLA-DR-peptide binding assay. More on the design: species or system human.
The next assay concerns the target HLA-DR3 (DRB*0301). Description: HLA-DR-peptide binding assay. More on the design: species or system human.
For a further assay, the target named is HLA-DR2 (DRB1*0201). The assay is described as follows: HLA-DR-peptide binding assay. More on the design: species or system human.
Another assay has as its system HLA-DR 1, 2, 3, 4 and 7. The assay is described as follows: HLA-DR-peptide binding assay, summary over the molecules tested. More on the design: species or system human. As to conditions: E7 peptides tested on HLA-DR 1, 2, 3, 4 and 7. As for the experimental part:
The analysis of peptide binding to purified DR molecules was performed using N-terminally fluorescence-labelled standard peptides.

Another assay has as its target T1, HLA-DR1 (DRB*0101) (Homo sapiens, UniProt P01903+P01911, A100R/D57E/F55L/F60I/F76Y/I96L/L162R/M171V/P40L/Q125E/R42F/V115G/Y59C).
T1 construct: endogenous in cells; host or cells: LG2.1 B-lymphoblastic cell line, homozygous for HLA-DR
The assay is described as follows: biochemical. The assay is classed as binding.

A further assay has as its target HLA-DR7 (DRB1*0701) (Homo sapiens, UniProt P01903+P01911, A100R/A102G/A103Q/D57E/D86V/E43K/F76Y/K127E/L162R/M171V/P40G/Q125H/Q99D/R33Q/R42Y/R54Q/S133A/S66F/T210M/V115G/Y107V/Y59L/Y89S). Particulars: read-out: Binding DR7, IC50.
Assay [1] has as its system HPV16 E2-specific Th-clones. The assay is described as follows: HPV16 E2-specific Th-clones: peptide recognition. The assay is classed as cell-based, human. As to conditions: clones from long-term E2 peptide stimulated healthy donor PBMC. As for the experimental part:
Long-term HPV16 E2-specific T-cell cultures and Th-clones were established according to previously described procedures (van der Burg et al. 1999). Briefly, PBMC from healthy HLA-typed donors were stimulated in vitro with the following HPV16 E2 peptides (E2271-300+E2286-315, E2301-330+E2316-345, E2331-365). 15×10^6 PBMC were seeded in 25 cm^2 culture flasks (Nalge Nunc, USA) in 6 ml IMDM supplemented with 10% autologous serum. Peptides were added at a concentration of 5 μg/ml. At day 7.15×10^6 PBMC were added, together with fresh medium and peptides. At day 14 and 21 viable T cells were harvested from the cultures, counted and restimulated with an equal amount of autologous irradiated PBMC and peptide (5 μg/ml). T-cell growth factor (Biotest, Dreieich, Germany) was added 2 days after restimulation at a final concentration of 10%. The T-cell cultures were tested for peptide recognition by proliferation assay at day 28. Peptide-specific T-cell cultures were cloned by limiting dilution and T-cell clones were subsequently tested for the recognition of E2-peptide and -protein-pulsed APC.
Specificity of the Th clones was analysed as described previously (Van der Burg et al. 1999). […] For measurement of proliferation, cultures were pulsed with […] [^3H] thymidine (5 μCi/mM, Amersham, UK) per well for 18 hours. Plates were harvested with a Micro cell Harvester (Skatron, Norway). Filters were packed in plastic covers containing 10 ml of scintillation fluid and subsequently counted on a 1205 Betaplate counter (Wallac, Turku, Finland). HLA-class II blocking experiments were performed using murine monoclonal antibodies: anti-DQ SPV. L3, anti-DR B8. 11.2, and anti-DP B7/21. Supernatants of the proliferation assays were harvested 24 hrs after incubation and analysed for the presence of IFN-γ by ELISA (van der Burg et al., 1999).

Setting [2] is: HPV16-E7 22-mer peptides, >70 indicates undetectable binding, read-out: Binding DR4, IC50.
The mark [3] stands for this setting: HPV16-E7 22-mer peptides, >70 indicates undetectable binding, read-out: Binding DR3, IC50.
Setting [4] is: HPV16-E7 22-mer peptides, >70 indicates undetectable binding, read-out: Binding DR2, IC50.

As a reminder, the IC50 is the concentration needed to halve the response being measured. Turning to `CSCC[C@H](NC(=O)[C@H](Cc1ccc(O)cc1)NC(=O)[C@H](CCC(=O)O)NC(=O)[C@H](Cc1c[nH]cn1)NC(=O)[C@H](CC(C)C)NC(=O)[C@@H](NC(=O)[C@@H]1CCCN1C(=O)[C@@H](NC(=O)[C@H](CC(=O)O)NC(=O)CNC(=O)[C@H](Cc1c[nH]cn1)NC(=O)[C@@H](N)CCSC)[C@@H](C)O)[C@@H](C)O)C(=O)N[C@@H](CC(C)C)C(=O)N[C@@H](CC(=O)O)C(=O)N[C@@H](CC(C)C)C(=O)N[C@@H](CCC(N)=O)C(=O)N1CCC[C@H]1C(=O)N[C@@H](CCC(=O)O)C(=O)N[C@H](C(=O)N[C@H](C(=O)N[C@@H](CC(=O)O)C(=O)N[C@@H](CC(C)C)C(=O)O)[C@@H](C)O)[C@@H](C)O` [E7 1-22], the IC50 was 30 µM at HLA-DR4 (DRB*0401) (setting [2]); 0.8 µM at HLA-DR3 (DRB*0301) (setting [3]); 10 µM at HLA-DR2 (DRB1*0201) (setting [4]); more than 70 µM at HLA-DR1 (DRB*0101) (read-out: Binding DR1, IC50); 7 µM on HLA-DR7 (DRB1*0701). Moreover, the HLA-DR molecules bound entry in the assay with HLA-DR 1, 2, 3, 4 and 7 is “bound to HLA DR2, 3, 4 and 7”.

For the compound `CSCC[C@H](NC(=O)[C@@H](N)Cc1ccc(O)cc1)C(=O)N[C@@H](CC(C)C)C(=O)N[C@@H](CC(=O)O)C(=O)N[C@@H](CC(C)C)C(=O)N[C@@H](CCC(N)=O)C(=O)N1CCC[C@H]1C(=O)N[C@@H](CCC(=O)O)C(=O)N[C@H](C(=O)N[C@H](C(=O)N[C@@H](CC(=O)O)C(=O)N[C@@H](CC(C)C)C(=O)N[C@@H](Cc1ccc(O)cc1)C(=O)N[C@@H](CS)C(=O)N[C@@H](Cc1ccc(O)cc1)C(=O)N[C@@H](CCC(=O)O)C(=O)N[C@@H](CCC(N)=O)C(=O)N[C@@H](CC(C)C)C(=O)N[C@@H](CC(N)=O)C(=O)N[C@@H](CC(=O)O)C(=O)N[C@@H](CO)C(=O)N[C@@H](CO)C(=O)O)[C@@H](C)O)[C@@H](C)O` [E7 11-32], the IC50 on HLA-DR4 (DRB*0401) (setting [2]) is more than 70 µM; on HLA-DR3 (DRB*0301) (setting [3]), 50 µM; at HLA-DR2 (DRB1*0201) (setting [4]) it was more than 70 µM; on HLA-DR1 (DRB*0101) (read-out: Binding DR1, IC50), more than 70 µM; on HLA-DR7 (DRB1*0701) it was more than 70 µM.

Consider `CC[C@H](C)[C@H](NC(=O)[C@H](CC(N)=O)NC(=O)[C@H](Cc1ccc(O)cc1)NC(=O)[C@@H](N)Cc1c[nH]cn1)C(=O)N[C@H](C(=O)N[C@H](C(=O)N[C@@H](Cc1ccccc1)C(=O)N[C@@H](CS)C(=O)N[C@@H](CS)C(=O)N[C@@H](CCCCN)C(=O)N[C@@H](CS)C(=O)N[C@@H](CC(=O)O)C(=O)N[C@@H](CO)C(=O)N[C@H](C(=O)N[C@@H](CC(C)C)C(=O)N[C@@H](CCCNC(=N)N)C(=O)N[C@@H](CC(C)C)C(=O)N[C@@H](CS)C(=O)N[C@H](C(=O)N[C@@H](CCC(N)=O)C(=O)N[C@@H](CO)C(=O)N[C@H](C(=O)O)[C@@H](C)O)C(C)C)[C@@H](C)O)[C@@H](C)O)C(C)C` [E7 51-72] (H-HYNIVTFCCKCDSTLRLCVQST-OH; N-terminus and C-terminus assumed), for which the 50% inhibitory concentration (IC50) is more than 70 µM on HLA-DR4 (DRB*0401) (setting [2]), 50 µM on HLA-DR3 (DRB*0301) (setting [3]) and more than 70 µM on HLA-DR2 (DRB1*0201) (setting [4]). For the same compound, the HLA-DR molecules bound entry in the assay on HLA-DR 1, 2, 3, 4 and 7 is “bound to DR1, 3 and 7”.

As for `CC[C@H](C)[C@H](NC(=O)[C@H](CC(=O)O)NC(=O)[C@@H](NC(=O)[C@H](Cc1c[nH]cn1)NC(=O)[C@@H](NC(=O)[C@H](CO)NC(=O)[C@H](CCC(N)=O)NC(=O)[C@@H](NC(=O)[C@H](CS)NC(=O)[C@H](CC(C)C)NC(=O)[C@H](CCCNC(=N)N)NC(=O)[C@H](CC(C)C)NC(=O)[C@@H](NC(=O)[C@H](CO)NC(=O)[C@H](CC(=O)O)NC(=O)[C@@H](N)CS)[C@@H](C)O)C(C)C)[C@@H](C)O)C(C)C)C(=O)N[C@@H](CCCNC(=N)N)C(=O)N[C@H](C(=O)N[C@@H](CC(C)C)C(=O)N[C@@H](CCC(=O)O)C(=O)N[C@@H](CC(=O)O)C(=O)N[C@@H](CC(C)C)C(=O)O)[C@@H](C)O` [E7 61-82] (H-CDSTLRLCVQSTHVDIRTLEDL-OH; N-terminus and C-terminus assumed), the IC50 on HLA-DR4 (DRB*0401) (setting [2]) is more than 70 µM; on HLA-DR3 (DRB*0301) (setting [3]), 65 µM; on HLA-DR2 (DRB1*0201) (setting [4]), 15 µM; on HLA-DR1 (DRB*0101) (read-out: Binding DR1, IC50), more than 70 µM; on HLA-DR7 (DRB1*0701) it was more than 70 µM.

As to `CC[C@H](C)[C@H](NC(=O)CNC(=O)[C@H](CC(C)C)NC(=O)[C@@H](NC(=O)CNC(=O)[C@H](CCSC)NC(=O)[C@H](CC(C)C)NC(=O)[C@H](CC(C)C)NC(=O)[C@H](CC(=O)O)NC(=O)[C@H](CCC(=O)O)NC(=O)[C@H](CC(C)C)NC(=O)[C@@H](NC(=O)[C@@H](N)CCCNC(=N)N)[C@@H](C)O)[C@@H](C)O)C(=O)N[C@H](C(=O)N[C@@H](CS)C(=O)N1CCC[C@H]1C(=O)N[C@H](C(=O)N[C@@H](CS)C(=O)N[C@@H](CO)C(=O)N[C@@H](CCC(N)=O)C(=O)N[C@@H](CCCCN)C(=O)N1CCC[C@H]1C(=O)O)[C@@H](C)CC)C(C)C` [E7 77-98] (H-RTLEDLLMGTLGIVCPICSQKP-OH; N-terminus and C-terminus assumed), the half-inhibitory concentration (IC50) was more than 70 µM on HLA-DR4 (DRB*0401) (setting [2]); more than 70 µM on HLA-DR3 (DRB*0301) (setting [3]); 22 µM at HLA-DR2 (DRB1*0201) (setting [4]); 46 µM at HLA-DR1 (DRB*0101) (read-out: Binding DR1, IC50, HPV16-E7 22-mer peptides, >70 indicates undetectable binding); 0.9 µM at HLA-DR7 (DRB1*0701) (HPV16-E7 22-mer peptides, >70 indicates undetectable binding). In the assay on HLA-DR 1, 2, 3, 4 and 7, the HLA-DR molecules bound result was “bound to DR1, 2 and DR7”.

Consider DLYCYEQLNDSSEEEDEIDGPA [E7 21-42], for which the IC50 on HLA-DR4 (DRB*0401) (setting [2]) is more than 70 µM; at HLA-DR3 (DRB*0301) (setting [3]), more than 70 µM; at HLA-DR2 (DRB1*0201) (setting [4]) it was 12 µM; at HLA-DR1 (DRB*0101) (read-out: Binding DR1, IC50) it was more than 70 µM; on HLA-DR7 (DRB1*0701), more than 70 µM.

For “E2 51-70: Th epitope peptide, amino acids 51-70 of HPV16 E2 (FKHINHQVVPTLAVSKNKAL)”, the “recognition by E2-specific CD4+ Th clones and HLA restriction” value (shortened to “recognition”) in assay [1] is given as “in a HLA-DR4 restricted manner”.

In the case of “E2 61-75: Th epitope peptide, amino acids 61-75 of HPV16 E2 (TLAVSKNKALQAIEL; UniProt P03120 61-75, looked up, fragment)”, the “recognition” value in assay [1] is given as “reacted against”.

As for “E2 311-325: Th epitope peptide, amino acids 311-325 of HPV16 E2 (LYTAVSSTWHWTGHN)”, the “recognition” value in assay [1] was “in the context of HLA-DQ6 (1)”.

As to “E2 351-365: Th epitope peptide, amino acids 351-365 of HPV16 E2 (KIPKTITVSTGFMSI)”, the “recognition” value in assay [1] is “in a DR1-restricted manner”.

Consider “LRYRFKKHCTLYTAVSSTWHWTGHNVKHKS [E2 301-330]”, for which the IC50 is 10 µM at HLA-DR4 (DRB*0401) (HPV16-E2 peptides, >70 represents undetectable binding, read-out: Binding affinity DR4, IC50); more than 70 µM on HLA-DR3 (DRB*0301) (HPV16-E2 peptides, >70 represents undetectable binding, read-out: Binding affinity DR3, IC50); 8 µM on HLA-DR2 (DRB1*0201) (HPV16-E2 peptides, >70 represents undetectable binding, read-out: Binding affinity DR2, IC50); 6 µM on HLA-DR1 (DRB*0101) (HPV16-E2 peptides, >70 represents undetectable binding, read-out: Binding affinity DR1, IC50). Further, the “recognition” value in assay [1] was “both Th-clones recognized”.
